According to patent US5182298A, “Cholesterol lowering agents” (Merck & Co., Inc., priority 1991, dated 1993):
Converted amounts (≈) assume the structure as drawn. Where two headings read alike, the source gives them in different places.

Experiments:
[1] = test system: Candida parapsilosis; assay: Microdilution Broth Assay (MIC/MFC); assay type: cell-based; conditions: Lodderomyces parapsilosis; strain MY 1010; read-out: MFC (minimum fungicidal concentration)
Method: (§1) The broad spectrum antifungal activity of the present compounds was further determined by broth dilution methods. The compounds are particularly active towards filamentous fungi and yeasts including Candida albicans and Crypt. neoformans. The sensitivity of filamentous fungi and yeasts was determined using inhibitor dilution assays in microtiter format. A standardized spore suspension for testing the filamentous fungi was prepared by inoculating sterile distilled water with spores such that 1.5-7.5×10^3 colony forming units were added per well. The microtiter wells were filled with 75 μl of yeast nitrogen base containing 1% Dextrose medium (YNB/D) containing compound. Fifty μl of inoculated YNB/D medium was then added to the wells.
(§2) The sensitivity of yeasts was determined by inoculating sterile distilled water with aliquots of a 4-hour yeast culture grown in Yeast Morphology (YM) media at 35° C. and diluting in YNB/D to yield a final concentration of 1.5-7.5×10^3 colony forming units/well. Seventy-five μl of inoculated media was added per well. To test the sensitivity of yeast, compound was solubilized in 10 percent aqueous DMSO at 2.56 mg/ml. The compound was diluted serially in YNB/D from 128 to 0.06 μg/ml. The wells were filled with 75 μl of drug containing media. […] Representative of the antifungal activity are the minimum inhibitory concentration and minimum fungicidal concentration data shown below in Table II: […]

[2] = test system: Candida tropicalis; assay: Microdilution Broth Assay (MIC/MFC); assay type: cell-based
Method: as §1, §2

[3] = test system: Saccharomyces cerevisiae; assay: Microdilution Broth Assay (MIC/MFC); assay type: cell-based
Method: as §1, §2

[4] = test system: Cryptococcus neoformans; assay: Microdilution Broth Assay (MIC/MFC); assay type: cell-based; conditions: for MIC: 35° C., read-out: MIC (minimum inhibitory concentration)
Method: as §1, §2

[5] = test system: Candida albicans; assay: Microdilution Broth Assay (MIC/MFC); assay type: cell-based
Method: as §1, §2

[6] = test system: Candida guilliermondii; assay: Microdilution Broth Assay (MIC/MFC); assay type: cell-based; conditions: Meyerozyma guilliermondii, strain MY 1019
Method: as §1, §2

[7] = test system: Torulospora hansenii; assay: FISP disc diffusion assay, zone of inhibition; assay type: cell-based; design: key: clear zone throughout, sharp edges; F: clear zone, fuzzy edges; S: slightly hazy zone (some growth observed throughout zone); H: hazy zone (considerable growth observed throughout zone); V: very hazy zone (zone of inhibition is barely discernable); R: zone displays a ring of resistant growth; conditions: CH2Cl2, 250 μg/ml
Text: (§3) The FISP assay employs disc diffusion susceptibility testing methods to generate a spectrum of activity against a panel of representative yeasts, filamentous fungi and bacteria.
(§4) The yeasts employed in the assay are Saccharomyces cerevisiae, Candida albicans, Candida tropicalis, Candida rugosa, Brettanomyces bruxellensis, Torulospora hansenii, Candida guilliermondi, Candida pseudotropicalis, Torulopsis glabrata, Cryptococcus albidus, Cryptococcus laurentii and Kluyveromyces fragilis.
(§5) For carrying out the assay, seeded assay plates are prepared in the following manner according to the type of assay strain.
(§6) Inocula for yeasts and bacterial strains are prepared from overnight broth cultures then diluted into potato dextrose agar to a final concentration of either 40 percent or 70 percent transmission at 660 nm.
(§7) Assay plates for the yeasts and filamentous fungi are prepared by diluting the inoculum into appropriate molten agar medium, cooled to 45° C. to obtain a final concentration of 4 percent.
(§8) The seeded agar media thus prepared are dispensed into petri dishes for assays (11 milliliters per dish).
(§9) The samples to be tested for production of antifungal agent are applied to 6.2 mm. filter paper discs (25 microliter/disc) and air dried at 24° C. […]
(§10) Following incubation, the inhibition zones are measured and recorded. […]

[8] = test system: Aspergillus niger; assay: FISP disc diffusion assay, zone of inhibition; assay type: cell-based; conditions: 24 h, CH2Cl2, 250 μg/ml, agar diffusion, two lines for this species, read-out: Zone: diameter of the zone of inhibition of growth
Text: as §3
(§11) The filamentous fungi used in the assay were Penicillium sp. Aspergillus niger, Trichoderma sp., Phoma sp., Trichoderma lignorum, Fusarium oxysporum, Ustilago maydis, Ceratocystis ulmi, Alternaria soloni, Verticillium serrae, Botrytis allii, Scopulariopsis communis, Cephalosporium sp., Cercospora beticola, Rhizomucor miehei, Aspergillus flavus and Aspergillus fumigatus.
as §5
(§12) Inocula for filamentous fungi are prepared by scraping the surface of stock plates maintained on potato dextrose agar with a moistened sterile dacron swab. The spores and mycelia are then suspended in 10 milliliters of sterile potato dextrose broth and adjusted to 65 percent transmission at 660 nm.
as §7
(§13) The seeded agar media thus prepared are dispensed into petri dishes for assays (11 milliliters per dish). […]
as §10

[9] = test system: Torulopsis glabrata; assay: FISP disc diffusion assay, zone of inhibition; assay type: cell-based; conditions: Nakaseomyces glabratus, 24 h; CH2Cl2, 250 μg/ml; agar diffusion; read-out: Zone: diameter of the zone of inhibition of growth
Text: as §3, §4, §5, §6, §7, §8, §9, §10

[10] = test system: Candida guilliermondii; assay: FISP disc diffusion assay, zone of inhibition; assay type: cell-based; conditions: Meyerozyma guilliermondii, 24 h; CH2Cl2, 250 μg/ml; agar diffusion; read-out: Zone: diameter of the zone of inhibition of growth
Text: as §3, §4, §5, §6, §7, §8, §9, §10

[11] = test system: Bacillus subtilis; assay: FISP disc diffusion assay, zone of inhibition; assay type: cell-based; conditions: CH2Cl2, 250 μg/ml, agar diffusion
Method: as §3
The bacteria employed in the assay are Streptomyces sp., Acholeplasma laidlawii and Bacillus subtilis.
as §5
Seeded agar for Bacillus subtilis are prepared from a commercially available spore suspension which is diluted directly into molten agar (45° C.) to obtain a final concentration of 0.1 percent.
as §8
(§14) The samples to be tested for production of antifungal agent are applied to 6.2 mm. filter paper discs (25 microliter/disc) and air dried at 24° C. When the sample to be tested is crude broth, it may be centrifuged prior to application. The discs bearing the material to be tested are then applied employing sterile conditions to the seeded assay plates. The assay plates are then incubated at either 28° C. or 37° C. for 24 hours. In one of the assays for Bacillus subtilis, the sample is applied to a disc previously impregnated with 4M potassium chloride at 25 μl/disc and then air dried.
as §10

[12] = light stability on isolation and handling; assay type: physicochemical
[13] = test system: Saccharomyces cerevisiae; assay: FISP disc diffusion assay, zone of inhibition; assay type: cell-based; conditions: 24 h, CH2Cl2, 250 μg/ml, agar diffusion, two lines without medium suffix, read-out: Zone: diameter of the zone of inhibition of growth
Text: as §3, §4, §5, §6
(§15) For three strains of Candida albicans and one strain of Saccharomyces cerevisiae, sterile saline is employed in place of potato dextrose broth.
as §7, §13, §10

[14] = test system: Candida albicans; assay: FISP disc diffusion assay, zone of inhibition; assay type: cell-based; conditions: 24 h, CH2Cl2, 250 μg/ml, agar diffusion, five lines without medium suffix, read-out: Zone: diameter of the zone of inhibition of growth
Text: as §3, §4, §5, §6, §15, §7, §13, §10

[15] = test system: Phoma sp.; assay: FISP disc diffusion assay, zone of inhibition; assay type: cell-based; design: key: clear zone throughout, sharp edges; F: clear zone, fuzzy edges; S: slightly hazy zone (some growth observed throughout zone); H: hazy zone (considerable growth observed throughout zone); V: very hazy zone (zone of inhibition is barely discernable); R: zone displays a ring of resistant growth; conditions: CH2Cl2, 250 μg/ml
Text: as §3, §11, §5, §12, §7, §8, §14
(§16) Following incubation, the inhibition zones are measured and recorded. The measurements are made from the extreme edge where growth differs from the background zone. […]

[16] = test system: Cephalosporium sp.; assay: FISP disc diffusion assay, zone of inhibition; assay type: cell-based; design: key: clear zone throughout, sharp edges; F: clear zone, fuzzy edges; S: slightly hazy zone (some growth observed throughout zone); H: hazy zone (considerable growth observed throughout zone); V: very hazy zone (zone of inhibition is barely discernable); R: zone displays a ring of resistant growth; conditions: CH2Cl2, 250 μg/ml
Text: as §3, §11, §5, §12, §7, §8, §14, §16

[17] = test system: Ceratocystis ulmi; assay: FISP disc diffusion assay, zone of inhibition; assay type: cell-based; design: key: clear zone throughout, sharp edges; F: clear zone, fuzzy edges; S: slightly hazy zone (some growth observed throughout zone); H: hazy zone (considerable growth observed throughout zone); V: very hazy zone (zone of inhibition is barely discernable); R: zone displays a ring of resistant growth; conditions: CH2Cl2, 250 μg/ml
Text: as §3, §11, §5, §12, §7, §8, §14, §16

CC(/C=C/C=C(\C)C(O)C(C)C(=O)O[C@H]1C[C@H](C)C=C2C=C[C@@]3(C)O[C@@H](O)CC(=O)[C@]3(C)[C@H]21)=C\C=C\C(=O)O (some centres unmarked) [Compound A]
MFC [1]: 0.25 µg/mL (≈ 0.462 µM)
MIC ([2]; strain MY 1012, 24 to 48 hours, 35° C., read-out: MIC (minimum inhibitory concentration)): ≤ 0.06 µg/mL
MFC ([2]; strain MY 1012, read-out: MFC (minimum fungicidal concentration)): 0.5 µg/mL (≈ 0.925 µM)
MIC ([3]; strain MY 1976, 24 to 48 hours, 35° C., read-out: MIC (minimum inhibitory concentration)): > 128 µg/mL
MFC ([3]; strain MY 1976, read-out: MFC (minimum fungicidal concentration)): > 128 µg/mL
MFC ([4]; strain MY 1051, read-out: MFC (minimum fungicidal concentration)): 32 µg/mL (≈ 59.2 µM)
MIC ([4]; strain MY 1146, 24 to 48 hours): 128 µg/mL (≈ 237 µM)
MFC ([4]; strain MY 1146, read-out: MFC (minimum fungicidal concentration)): 64 µg/mL (≈ 118 µM)
MIC ([4]; strain MY 2061, 24 to 48 hours): 128 µg/mL (≈ 237 µM)
MFC ([4]; strain MY 2061, read-out: MFC (minimum fungicidal concentration)): 64 µg/mL (≈ 118 µM)
MIC ([5]; Candida albicans, strain MY 1055, 24 to 48 hours, 35° C., read-out: MIC (minimum inhibitory concentration)): ≤ 0.06 µg/mL
MFC ([5]; Candida albicans, strain MY 1055, read-out: MFC (minimum fungicidal concentration)): ≤ 0.06 µg/mL
MFC (minimum fungicidal concentration) ([5]; strain MY 1028): ≤ 0.06 µg/mL
MIC (minimum inhibitory concentration) ([5]; strain MY 1028, 24 to 48 hours, 35° C.): ≤ 0.06 µg/mL
MIC ([6]; 24 to 48 hours, 35° C., read-out: MIC (minimum inhibitory concentration)): > 128 µg/mL
MFC ([6]; read-out: MFC (minimum fungicidal concentration)): > 128 µg/mL
Zone quality (qualifier) [7]: H
zone of inhibition at 250 µg/mL [8]: 0 mm
zone of inhibition at 250 µg/mL [9]: 0 mm
zone of inhibition at 250 µg/mL [10]: 0 mm
zone of inhibition at 250 µg/mL ([11]; Bacillus subtilis, 24 h, KCl (disc impregnated with 4M potassium chloride), read-out: Zone: diameter of the zone of inhibition of growth): 0 mm
Zone: diameter of the zone of inhibition of growth [11]: 0 mm
light sensitivity [12]: light sensitive
stability ([12]; isolated and worked with in the absence of light): stable
zone of inhibition at 250 µg/mL [13]: 0 mm
zone of inhibition at 250 µg/mL [14]: 0 mm
Zone quality (qualifier) [15]: S
Zone quality (qualifier) [16]: F
Zone quality (qualifier) [17]: V
